Test results published in a melting point compilation (Tetko et al.; mined from patent text by program, amines drawn as free bases though some values may be those of a salt).

melting point [°C]	Compound
115 to 116	CCCn1nc(C#N)cc1CC(C)(C)NC(=O)OC(C)(C)C
202 to 203	CC(=O)c1c(-c2ccccc2)[nH]c(-c2ccncc2)c1C
144 to 146	CCCCCCCCCCCCc1nnn(CC(=O)Nc2c(OC)cc(OC)cc2OC)n1
105 to 107	COc1cccc(C(=O)Nc2ccc(OCCN3CCOCC3)c3ccccc23)c1
82 to 86	CCCCOc1cc(CCS(=O)(=O)NC(=O)OCCOC)n(Cc2ccc(Cl)cc2Cl)n1
158 to 159	COc1cccc2c1CCCC2=NO
156	CC(C)(C)c1cc(SCCC(=O)NC2C3CC4CC(C3)CC2C4)cc(C(C)(C)C)c1O (stereo unspecified)
184	COc1cccc2c(=O)c3c(O)cc(OCC(O)CCl)cc3oc12 (stereo unspecified)
223 to 225	COc1ccc(C2NCc3c2[nH]c2ccccc2c3=O)cc1OC (stereo unspecified)
158 to 159	Cc1ccc(-c2c(CN3C(=O)c4ccccc4C3=O)n(CC(C)C)c(=O)c3ccc(OCc4ccccc4)cc23)cc1
62 to 63	OCCCc1conc1-c1ccc(Cl)c(Cl)c1
108 to 110	CCN1C(=O)CC[C@@H]2c3ccc(Cl)cc3CC[C@H]21
59 to 60	CCCc1cc(=O)n2cccc(C)c2n1
177	Cc1nccn1C(c1ccccc1)(c1ccccc1)c1ccccc1Cl
146 to 149	O=C(O)COc1cccc2c1CCc1sc(Cc3ccccc3)nc1-2
92	COc1ccc(-c2nc3cc(OC)cc(-c4ccccc4)c3o2)cc1
42 to 45	CC=COC1=C(O)C(CCC=CCCCCCCCCCCCCCC)OC1=O (stereo unspecified)
197 to 199	CC(=O)OCc1ccc(-c2[nH]c(-c3cccc4ccccc34)nc2C(=O)Nc2nccs2)cc1
69 to 70	CCC1Nc2cc(F)c(F)c(F)c2-n2cccc21 (stereo unspecified)
100 to 102	CCC(=O)NCCC1CCc2ccn3nc(C)cc3c21 (stereo unspecified)
87.5 to 89.5	O=C(NC(Cc1ccccc1)C1CC(Cc2ccccc2)=NO1)OCc1ccccc1 (stereo unspecified)
172 to 173	CS(=O)(=O)c1ccc(-c2c(Br)c3cccccc-3c2-c2ccccc2)cc1
205 to 206	Cc1ccc2[nH]c(=O)c(=O)[nH]c2c1CN(C)Cc1ccccc1
135 to 137	CC(C)(C)OC(=O)C=Cc1ccc(C[C@H](NC(=O)OC(C)(C)C)C(=O)OC(c2ccccc2)c2ccccc2)cc1

melting point [°C]	Compound
143 to 146	Cc1cccc2nc3c(cc12)sc1cccc(Cl)c13
178 to 179	COc1ccc(Cn2ncn(-c3ccc(N4CCN([C@H](C)[C@](O)(Cn5cncn5)c5ccc(F)cc5F)CC4)cc3)c2=O)cc1
97.5 to 99.5	C=CC(=O)N1Cc2cc(OC)ccc2SC(Cl)C1 (stereo unspecified)
151 to 152	CCCc1ccc2nc(C(F)(F)F)c(S(N)(=O)=O)n2n1
98	CC(C)(C(=O)c1ccc(SCCCCS)cc1)N1CCOCC1
160	O=C(O)c1ccc(OCCCc2ccc(OCCCC3CCCCC3)cc2)c(C(=O)NC2CCCC(C(=O)O)C2)c1 (stereo unspecified)
158 to 162	NC(=O)[C@@H]1C[C@H](S)CN1C(=O)OCc1ccc([N+](=O)[O-])cc1
229 to 230	COCCOc1cc(OC)c2c(=O)[nH]c(-c3cc(C)nc(C)c3)nc2c1
155	O=C(O)c1ccc2cnc3ccccc3c2c1
73 to 74	COC(=O)Oc1ccc(C(=O)CBr)c(OC(=O)OC)c1
131 to 136	Cn1cnc(C(O)c2cc(Cl)cc3c2OC(C)(C)OC3)c1 (stereo unspecified)
211 to 213	CC[C@H](C)[C@H](NC(=O)NC(C)C)C(=O)N[C@H](CO)Cc1c[nH]c2ccccc12
91.5 to 93.5	CN(Cc1ccc(S(C)=O)s1)C(=O)C12CC3CC(CC(C3)C1)C2 (stereo unspecified)
213 to 216	O=C(ON1C(=O)CCC1=O)c1ccc(-c2ccc(S(=O)(=O)N(CCO)CCO)cc2)[nH]c1=O
87 to 92	COc1cc(Oc2cccc(C(F)(F)F)c2)nc(C(=O)NCc2ccccc2)c1
156 to 157	CCS(=O)c1ccc(-c2coc3ccc(-c4nnc(C)o4)cc23)cc1 (stereo unspecified)
143 to 145	CNC(=O)CCN1c2ccccc2N2CCc3cccc(c32)C1C (stereo unspecified)
133 to 141	COc1cc(OCc2ccncc2)ccc1/C=C/c1cc(/C=C/c2ccc3[nH]ccc3c2)n[nH]1
148 to 149	CC(=O)SCC(C(=O)Nc1cccc(O)c1)C(F)(F)F (stereo unspecified)
180 to 181	COc1cc(NC(=O)CC#N)c(Cl)cc1Cl
159 to 160	COc1cc2sc(C#N)cc2c(Cl)c1OC
126 to 129	CCCCCCCCCC(=O)Nc1cc(C(=O)N2CCCCC2CO)c2cc[nH]c2c1 (stereo unspecified)
127 to 130	CC(=O)N(CCCCn1ccnc1)C1=Nc2cccc3cccc1c23
194 to 195	Nc1nc(-c2ccccc2)c(CCO)c2ncnn12

melting point [°C]	Compound
78 to 79	COC(=O)c1nn(C)c2ccccc12
187 to 188	Cc1ccc(-c2c(C(=O)NCc3cc(C(F)(F)F)cc(C(F)(F)F)c3)n(CCCCO)c(=O)c3ncccc23)cc1
138 to 140	Cn1cc(SC(F)(F)F)c(N)n1
70.1 to 71	O=C(NCCc1ccccc1Cl)c1ccccc1
303 to 305	O=C(O)c1ccc(-c2ccc(I)cc2)cc1
> 90	CCCCc1nn(-c2cc([N+](=O)[O-])ccc2Cl)c(=O)n1Cc1ccc(-c2ccccc2S(N)(=O)=O)cc1
228 to 230	COC(=O)C1CCC2C3CCC4CC(O)C(O)CC4(C)C3C(NC(=O)OCC(Cl)(Cl)Cl)CC12C (stereo unspecified)
104 to 106	CCOC(=O)C1Cc2cc(OC)c(OC)cc2N1C(=O)CCSC(C)=O (stereo unspecified)
92 to 94	CNc1ccc(C(O)(C(F)(F)Cl)C(F)(F)Cl)cc1
205	CN(C)c1n[nH]c(=O)n1N
142 to 144	CCOc1noc(C(=O)OCc2ccccc2)c1CC(NC(=O)OC(C)(C)C)C(=O)OCc1ccccc1 (racemic)
131 to 133	CNC(=O)c1ccnc([N+](=O)[O-])c1
193 to 196	CC1(C)Oc2ccc(C#N)cc2C(Oc2cccnc2)C1(C)O (stereo unspecified)
117 to 118	CCOC(=O)Cc1ccc(NC(=O)CCc2cnoc2-c2ccc(Cl)cc2)cc1
148 to 151	Cc1ccccc1-c1cnc2c(C(F)(F)F)cccc2c1-c1cccc(N)c1
95 to 96	CC(C)(C)OC(=O)[C@@H]1CC[C@H](CC(=O)O)N1Cc1ccccc1
163 to 164	CCOC(=O)/C(=N\OCC(=O)N1CCCCCC1)c1csc(N)n1
97	COc1ccc2c(c1OC)CCN(CCc1ccc([N+](=O)[O-])cc1)C2
93.7 to 95.1	CCOC(=O)C1=Cc2cc(Cl)cc(-c3cccc(OC)c3)c2OC1C(F)(F)F (stereo unspecified)
202 to 204	Cc1ccn(-c2ncc(C(=O)N3Cc4cccn4Cc4ccccc43)c(C(F)(F)F)n2)n1
112 to 114	CCOC(=O)c1ccccc1OCC(O)COc1ccc(F)cc1 (stereo unspecified)
196 to 200	O=S1(=O)Cc2cc(Cl)c(Cl)cc2C(c2ccc(F)cc2)=NN1
72 to 74	N#CC(C#N)CC(CC(F)(F)C(F)(F)C(F)(F)C(F)F)SC(F)(F)F (stereo unspecified)
101 to 102	COc1ccccc1NC(=O)CCCC(C)=O

melting point [°C]	Compound
179 to 180	CCCCn1c(=O)c(NC(=O)Nc2c(C(C)C)ccc(NC(=O)c3cccnc3)c2C(C)C)c(-c2cccc(OC)c2)c2cccnc21
208 to 209	NC(=O)[C@@H]1C[C@]2(NC(=O)N(CCCN3CCC(O)CC3)C2=O)c2cc(F)ccc2O1
167 to 168	C=CCOCC1CC(N)c2cc(S(N)(=O)=O)sc2S1(=O)=O (stereo unspecified)
51 to 52	CO[C@]1(c2cnc(SC)s2)CCO[C@@H]1C (racemic)
110	CCOC(=O)C1=C(N)NC(N)=C(C(=O)OC(C)C)C1c1ccccc1[N+](=O)[O-] (stereo unspecified)
48 to 49	O=[N+]([O-])c1ccccc1Oc1ccccc1Cl
69 to 71	CC(=Cc1ccccc1)c1ccc2c(c1)C(C)(C)CCN2C
82 to 83	CC(C)(C)[Si](C)(C)OCCn1nc(CO)cc1CO
220 to 223	NCCCc1nc2c([nH]1)-c1ccccc1N(C(=O)c1ccc(NC(=O)c3ccccc3-c3ccccc3)cc1)CC2
168 to 175	ON=C(c1ccccc1F)c1ccc(O)c(Cl)c1Cl
162 to 166	N#CC(=Cc1cc(F)ccc1[N+](=O)[O-])C(N)=O
137 to 140	O=C(C(=C1NCCCS1)[N+](=O)[O-])c1ccccc1
58 to 60	Nc1sc2c(c1C(=O)c1cccc(CF)c1)CCN(Cc1ccccc1)C2
133 to 134	COc1ccc(CNC(=O)C(=O)NCCc2ccccn2)c(C)c1
195 to 200	COc1ccc(/C=C/C(=O)/C=C/C(=O)O)c(OC)c1
193 to 195	CC(=O)NC[C@H]1CN(c2ccc(/C=C3/C(=O)N(C)c4ccccc43)cc2)C(=O)O1
224 to 225	Cc1c(Cl)cccc1-n1c(=O)[nH]c2cccnc21
226 to 228	NCc1cccnc1C1CCN(c2c(F)c(N)c3c(=O)c(C(=O)O)cn(C4CC4)c3c2F)C1 (stereo unspecified)
230	CCn1cc(C(=O)O)c(=O)c2cc(Cl)c(N3CCCCC3)cc21
100 to 102	Cc1csc(=S)n1OC(=O)c1ccccc1
350 to 351	Cn1nnnc1-c1cnc2cc(Cl)ccc2c1O
216 to 218	Oc1ccc(-c2cc3cc(Cl)ccc3o2)cc1
102 to 104	Fc1cc(Cl)ccc1-n1nc2c(c1Cl)CCC2
172 to 174	Nc1ccc(Oc2ccccc2-c2ccccc2Oc2ccc(N)c(N)c2)cc1N

Compound	melting point [°C]
O=c1cc(-c2ccncn2)nc2n1CCC1(CCNC1)N2 (stereo unspecified)	226 to 228
CC12CC(O)C3(F)C(CCC4=CC(=O)C=CC43C)C1CC(O)C2=O (stereo unspecified)	227 to 228
CN(C)C1(c2cccc(F)c2)CCC(=CC(=O)NCCc2c[nH]c3ccccc23)CC1 (stereo unspecified)	172 to 176
CN1C(=O)[C@H](NC(=O)/C=C/c2ccc3c(c2)OCO3)N=C(c2ccccc2)c2ccccc21	143 to 145
O=C(Nc1ccccc1)NC1C(=O)N(CC2C3CC4CC(C3)CC2C4)c2ccccc2N(c2ccccc2)C1=O (stereo unspecified)	192 to 193
